Drawing on patent US10738033B2, “Trk inhibition” (NantBio, Inc., priority 2017, dated 2020), this text covers inhibition for 48 compounds.

The target in the assay is T1, TrkA(h) (Homo sapiens, UniProt P04629).
T1 construct: purchased Millipore (KinaseProfiler service)
T1 sequence (P04629 33-796): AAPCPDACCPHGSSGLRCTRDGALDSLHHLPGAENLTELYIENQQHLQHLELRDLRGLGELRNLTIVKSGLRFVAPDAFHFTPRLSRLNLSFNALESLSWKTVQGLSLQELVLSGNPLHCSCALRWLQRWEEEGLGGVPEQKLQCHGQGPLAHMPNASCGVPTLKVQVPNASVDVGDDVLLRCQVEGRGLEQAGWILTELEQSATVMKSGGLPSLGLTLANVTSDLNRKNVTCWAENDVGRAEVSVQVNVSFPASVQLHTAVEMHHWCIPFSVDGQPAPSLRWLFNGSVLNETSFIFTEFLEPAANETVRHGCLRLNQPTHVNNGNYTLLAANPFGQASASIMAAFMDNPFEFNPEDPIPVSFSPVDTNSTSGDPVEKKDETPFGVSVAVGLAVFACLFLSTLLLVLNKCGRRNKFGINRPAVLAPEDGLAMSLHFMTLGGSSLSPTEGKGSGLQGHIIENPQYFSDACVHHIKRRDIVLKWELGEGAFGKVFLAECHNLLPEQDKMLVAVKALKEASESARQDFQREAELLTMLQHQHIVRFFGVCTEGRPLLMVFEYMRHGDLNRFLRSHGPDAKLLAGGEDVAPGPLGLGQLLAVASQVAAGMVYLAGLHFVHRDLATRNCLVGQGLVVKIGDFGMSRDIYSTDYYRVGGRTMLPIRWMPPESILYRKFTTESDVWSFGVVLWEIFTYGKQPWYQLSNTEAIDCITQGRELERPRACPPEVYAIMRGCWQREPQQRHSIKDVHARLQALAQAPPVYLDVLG
Kind of assay: KinaseProfiler (Millipore) radiometric kinase inhibition assay. It is filed as biochemical. As to conditions: compound concentration 1 μM. As to the method: The KinaseProfiler™ Service Assay Protocols (Millipore) were used to test the kinase inhibiting activity of novel compounds from this invention. To do this, the buffer composition was as follows: 20 mM MOPS, 1 mM EDTA, 0.01% Brij-35, 5% Glycerol, 0.1% β-mercaptoethanol, 1 mg/mL BSA. Test compounds were initially dissolved in DMSO at the desired concentration, then serially diluted into the kinase assay buffer. In a final reaction volume of 25 μL, TrkA(h) (5-10 mU) is incubated with 8 mM MOPS pH 7.0, 0.2 mM EDTA, 200 μM LRRASLG (Kemptide), 10 mM MgAcetate and [γ^33P-ATP]. The reaction was initiated by the addition of the MgATP mix. After incubation for 40 minute at room temperature, the reaction was stopped by addition of 5 μL of a 3% phosphoric acid solution. 10 μL of the reaction was then spotted onto a P30 filtermat and washed three times for 5 minutes in 50 mM phosphoric acid and once in methanol prior to drying and scintillation counting. Wells containing substrate but no kinase and wells containing a phosphopeptide control were used to set 0% and 100% phosphorylation value, respectively.
As for `c1ccc(C2CCCN2c2cc(Nc3cc(C4CC4)[nH]n3)ncn2)cc1` (stereo not drawn) [Example 24], the inhibition at 1 µM was 101%.
For `Cc1ccc(C2CCCN2c2cc(Nc3cc(C4CC4)[nH]n3)ncn2)cc1` (stereo not drawn) [Example 25], the inhibition at 1 µM was 100%.
Next, `FC(F)(F)c1ccc(C2CCCN2c2cc(Nc3cc(C4CC4)[nH]n3)ncn2)cc1` (stereo not drawn) [Example 26]: 98%; `COc1ccc(C2CCCN2c2cc(Nc3cc(C4CC4)[nH]n3)ncn2)cc1` (stereo not drawn) [Example 27]: 101%.
For `Fc1ccc(C2CCCN2c2cc(Nc3cc(C4CC4)[nH]n3)ncn2)cc1` (stereo not drawn) [Example 28], the inhibition at 1 µM came to 103%.
In the case of `Clc1ccc(C2CCCN2c2cc(Nc3cc(C4CC4)[nH]n3)ncn2)cc1` (stereo not drawn) [Example 29], the inhibition at 1 µM worked out at 105%.
As to `Cc1cccc(C2CCCN2c2cc(Nc3cc(C4CC4)[nH]n3)ncn2)c1` (stereo not drawn) [Example 30], the inhibition at 1 µM was 97%.
For `FC(F)(F)c1cccc(C2CCCN2c2cc(Nc3cc(C4CC4)[nH]n3)ncn2)c1` (stereo not drawn) [Example 31], the inhibition at 1 µM was found to be 61%.
With `COc1cccc(C2CCCN2c2cc(Nc3cc(C4CC4)[nH]n3)ncn2)c1` (stereo not drawn) [Example 32], the inhibition at 1 µM turned out to be 91%.
Next, `Fc1cccc(C2CCCN2c2cc(Nc3cc(C4CC4)[nH]n3)ncn2)c1` (stereo not drawn) [Example 33]: 103%; `Clc1cccc(C2CCCN2c2cc(Nc3cc(C4CC4)[nH]n3)ncn2)c1` (stereo not drawn) [Example 34]: 101%; `Cc1ccccc1C1CCCN1c1cc(Nc2cc(C3CC3)[nH]n2)ncn1` (stereo not drawn) [Example 35]: 92%.
`FC(F)(F)c1ccccc1C1CCCN1c1cc(Nc2cc(C3CC3)[nH]n2)ncn1` (stereo not drawn) [Example 36]: the inhibition at 1 µM is 93%.
Consider `COc1ccccc1C1CCCN1c1cc(Nc2cc(C3CC3)[nH]n2)ncn1` (stereo not drawn) [Example 37], for which the inhibition at 1 µM was determined as 101%.
With `Fc1ccccc1C1CCCN1c1cc(Nc2cc(C3CC3)[nH]n2)ncn1` (stereo not drawn) [Example 38], the inhibition at 1 µM was 95%.
Next, `Clc1ccccc1C1CCCN1c1cc(Nc2cc(C3CC3)[nH]n2)ncn1` (stereo not drawn) [Example 39]: 97%; `CN(C)c1ccc(C2CCCN2c2cc(Nc3cc(C4CC4)[nH]n3)ncn2)cc1` (stereo not drawn) [Example 40]: 102%; `CN(C)c1cccc(C2CCCN2c2cc(Nc3cc(C4CC4)[nH]n3)ncn2)c1` (stereo not drawn) [Example 41]: 101%.
In the case of `Fc1cccc(F)c1C1CCCN1c1cc(Nc2cc(C3CC3)[nH]n2)ncn1` (stereo not drawn) [Example 42], the inhibition at 1 µM turned out to be 101%.
`Fc1ccc(C2CCCN2c2cc(Nc3cc(C4CC4)[nH]n3)ncn2)c(F)c1` (stereo not drawn) [Example 43]: the inhibition at 1 µM is 105%.
Consider `Fc1ccc(F)c(C2CCCN2c2cc(Nc3cc(C4CC4)[nH]n3)ncn2)c1` (stereo not drawn) [Example 44], for which the inhibition at 1 µM was found to be 103%.
Next, `OC1CC(c2cc(F)ccc2F)N(c2cc(Nc3cc(C4CC4)[nH]n3)ncn2)C1` (stereo not drawn) [Example 45]: 96%; `Clc1ccc(C2CCCN2c2cc(Nc3cc(C4CC4)[nH]n3)ncn2)cc1Cl` (stereo not drawn) [Example 46]: 100%; `Cc1ccc(C2CCCN2c2ncnc(Nc3cc(C4CC4)[nH]n3)c2C#N)cc1` (stereo not drawn) [Example 47]: -6%.
With `Fc1ccc(C2CCCN2c2ncnc(Nc3cc(C4CC4)[nH]n3)c2F)cc1` (stereo not drawn) [Example 48], the inhibition at 1 µM worked out at 51%.
Next, `Fc1ccc(C2CCCN2c2cc(Nc3cc(C4CCC4)[nH]n3)ncn2)cc1` (stereo not drawn) [Example 49]: 101%; `C/C=C/c1cc(Nc2cc(N3CCCC3c3ccc(F)cc3)ncn2)n[nH]1` (stereo not drawn) [Example 50]: 99%; `Fc1ccc(C2CCCN2c2cc(Nc3cc(-c4ccco4)[nH]n3)ncn2)cc1` (stereo not drawn) [Example 51]: 79%.
Take `Fc1ccc(C2CCCN2c2cc(Nc3cc(-c4ccccn4)[nH]n3)ncn2)cc1` (stereo not drawn) [Example 52]: the inhibition at 1 µM came out at 30%.
`CC(C)Oc1cc(Nc2cc(N3CCCC3c3ccccc3Cl)ncn2)n[nH]1` (stereo not drawn) [Example 53]: the inhibition at 1 µM worked out at 96%.
Next, `Clc1ccccc1C1CCCN1c1cc(Nc2cc(C3CCCO3)[nH]n2)ncn1` (stereo not drawn) [Example 54]: 70%.
With `CC(C)(C)OC(=O)N1CCC(c2cc(Nc3cc(N4CCCC4c4ccccc4Cl)ncn3)n[nH]2)CC1` (stereo not drawn) [Example 55], the inhibition at 1 µM was determined as 6%.
Consider `Clc1ccccc1C1CCCN1c1cc(Nc2cc(-c3ccco3)[nH]n2)ncn1` (stereo not drawn) [Example 56], for which the inhibition at 1 µM stood at 47%.
For `Fc1ccc(Nc2cc(N3CCCC3c3ccc(F)cc3)ncn2)cc1` (stereo not drawn) [Example 57], the inhibition at 1 µM stood at 44%.
Consider `N#Cc1cnc(Nc2cc(N3CCCC3c3ccc(F)cc3)ncn2)s1` (stereo not drawn) [Example 58], for which the inhibition at 1 µM was determined as 7%.
Consider `CC(C)n1cc(Nc2cc(N3CCCC3c3ccc(F)cc3)ncn2)cn1` (stereo not drawn) [Example 59], for which the inhibition at 1 µM was 0%.
Consider `Fc1ccc(C2CCCN2c2cc(Nc3n[nH]c4ccccc34)ncn2)cc1` (stereo not drawn) [Example 60], for which the inhibition at 1 µM was found to be 79%.
Turning to `CN1CCN(c2ccc(Nc3cc(N4CCCC4c4ccc(F)cc4)ncn3)nc2)CC1` (stereo not drawn) [Example 61], the inhibition at 1 µM was -12%.
In the case of `Fc1ccc(C2CCN2c2cc(Nc3cc(C4CC4)[nH]n3)ncn2)cc1` (stereo not drawn) [Example 62] it was 105%; in that of `c1ccc(C2CCCCN2c2cc(Nc3cc(C4CC4)[nH]n3)ncn2)cc1` (stereo not drawn) [Example 63], 99%; in that of `c1ccc(C2COCCN2c2cc(Nc3cc(C4CC4)[nH]n3)ncn2)cc1` (stereo not drawn) [Example 64], 85%.
Regarding `CN1CCN(c2cc(Nc3cc(C4CC4)[nH]n3)ncn2)C(c2ccccc2)C1` (stereo not drawn) [Example 65], the inhibition at 1 µM worked out at 79%.
With `Cc1cc(Nc2cc(N3CCCC3c3ccc(Cl)cc3)ncn2)n[nH]1` (stereo not drawn) [Example 66], the inhibition at 1 µM amounted to 95%.
`CCCc1cc(Nc2cc(N3CCCC3c3ccc(Cl)cc3)ncn2)n[nH]1` (stereo not drawn) [Example 67]: the inhibition at 1 µM amounted to 99%.
Turning to `Nc1nc(Nc2cc(C3CC3)[nH]n2)cc(N2CCCC2c2ccc(F)cc2)n1` (stereo not drawn) [Example 71], the inhibition at 1 µM was determined as 100%.
Next, `Fc1ccc(C2CCCN2c2ncnc(Nc3cc(C4CC4)[nH]n3)n2)cc1` (stereo not drawn) [Example 73]: 100%.
In the case of `Fc1ccc(C2CCCN2c2ncnc(Nc3cc(C4CC4)[nH]n3)n2)c(F)c1` (stereo not drawn) [Example 74] it was 100%; in that of `Clc1ccc(C2CCCN2c2ncnc(Nc3cc(C4CC4)[nH]n3)n2)cc1` (stereo not drawn) [Example 75], 100%.

Usually inhibition stands for the change of the read-out against control, counted positive when it falls.
